Results reported in PubChem BioAssay (NCI).
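Protocol summary: plate cells (96-well), add compound at 5 concentrations, incubate 48 h, interpolate endpoints linearly. At the TGI there is no net growth.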

How the values were obtained:
Assay in all cases: inhibition of tumour cell growth, NCI panel, 48 h
A549 NSCLC = system: A549 NSCLC
NCI-H460 lung = system: NCI-H460 lung
HOP-62 NSCLC = system: HOP-62 NSCLC
SK-MEL-28 melanoma = system: SK-MEL-28 melanoma
SNB-75 CNS = system: SNB-75 CNS
SN12C renal = system: SN12C renal
MDA-MB-435 = system: MDA-MB-435
RPMI-8226 leukemia = system: RPMI-8226 leukemia
SK-OV-3 ovarian = system: SK-OV-3 ovarian
MOLT-4 leukemia = system: MOLT-4 leukemia
EKVX NSCLC = system: EKVX NSCLC

Row | SMILES | TGI (A549 NSCLC) [µM] | TGI (NCI-H460 lung) [µM] | TGI (HOP-62 NSCLC) [µM] | TGI (SK-MEL-28 melanoma) [µM] | TGI (SNB-75 CNS) [µM] | TGI (SN12C renal) [µM] | TGI (MDA-MB-435) [µM] | TGI (RPMI-8226 leukemia) [µM] | TGI (SK-OV-3 ovarian) [µM] | TGI (MOLT-4 leukemia) [µM] | TGI (EKVX NSCLC) [µM]
1 | CC(C)CCCC(C)[C@H]1CC[C@H]2n3c(nc4ccccc43)CCC[C@]12C (some centres undefined) | 50.3 | 32 | 40.6 | 34.3 | 29.3 | 31.1 | 38.6 | 33.9 | 30.9 | 35.9 | –
2 | O=C(Oc1c(Cl)cc(C2(c3cc(Cl)c(OC(=O)c4ccccc4)c(Cl)c3)CCCCC2)cc1Cl)c1ccccc1 | 37.1 | 26.1 | 33.9 | 29.3 | 26.9 | 28.2 | 24.7 | 33.3 | 31.2 | 20.7 | 24.9
3 | C=C1C(=O)O[C@@H]2/C=C(\C)CC/C=C(\C)CC[C@@]12O | 27.1 | 31.5 | 15.6 | 13.3 | – | 7.91 | 7.29 | 6.43 | 54.4 | 6.15 | 12.1
4 | CCc1n[nH]c(=O)n1/N=C(\C)c1ccc([N+](=O)[O-])cc1 | > 100 | > 100 | > 100 | > 100 | – | > 100 | > 100 | > 100 | – | > 100 | > 100
5 | COc1cc(/C=C2\N=C(c3ccccc3)N(c3ccc(C(=O)c4ccccc4)cc3N3C(=O)/C(=C/c4ccc(O)c(OC)c4)N=C3c3ccccc3)C2=O)ccc1O | 62.7 | 20.2 | 48.9 | 72.6 | 54.3 | 62.7 | 8.16 | 94.3 | 45 | 15.3 | 76.4
6 | CCCCN1C(=O)c2c(Br)sc(Br)c2C1=O | 70.3 | > 100 | > 100 | > 100 | 90.5 | 95.8 | > 100 | > 100 | > 100 | 70.6 | > 100
7 | Cc1[nH]c(=O)[nH]c(=O)c1/C=C/C(=O)NC(CO)CS(=O)CS(C)=O (centres undefined) | 332 | 68.1 | 94.5 | 69.8 | 38.8 | 91.5 | – | 183 | 169 | 66.5 | 66.4
8 | Cc1cc2c(c(O)c1-c1c(C)cc(O)c3c1C(=O)C=CC3=O)C(=O)C=CC2=O | 52.4 | 44.5 | 56.5 | – | 84.9 | 7.59 | – | 2.29 | 29 | 0.375 | –
9 | COc1ccc(-c2nc3c(nc2-c2ccc(OC)cc2)C(N)=NS(=O)(=O)N3)cc1 | > 100 | – | > 100 | > 100 | > 100 | > 100 | – | > 100 | > 100 | > 100 | > 100
10 | CC(=O)O[C@H]1CC[C@H]2[C@@H]3CCC4=CC(=O)C=C[C@]4(O)[C@H]3CC[C@]12C | > 87.9 | > 100 | > 100 | > 100 | 61.3 | > 100 | 49.5 | 44.3 | – | 25.7 | > 80.7
